In patent publication US8901313B2, “6,5-heterocyclic propargylic alcohol compounds and uses therefor” (Genentech, Inc., priority 2011, dated 2014) one finds Ki and IC50 data, which are given here for 19 molecules.

Where only a bound is given, the exact number is not on record here.

Assay [1] concerns the target T1, nuclear factor-kappa B (NF-kB)-inducing kinase (NIK) (Homo sapiens, UniProt Q99558).
T1 construct: made in house; host or cells: baculovirus-infected insect cells
The assay can be described thus: NIK Enzyme Inhibition Assay (Transcreener ADP assay). It counts as biochemical. As to conditions: purified NIK 0.2-1 nM, 10 uM ATP, fluorescence polarization, Morrison's quadratic equation; read-out: inhibitory value (Ki) for NIK. For orientation: Fluorescence polarisation rises when a labelled molecule tumbles more slowly, as on binding a larger partner.

In assay [2] the test system is NF-kB signaling through NIK in human embryonic kidney 293 cells. The experiment in a line: 293-NIK NF-kB-Luciferase reporter assay. It counts as cell-based. As to conditions: HEK293, 293 cells with tetracycline-inducible NIK, 1 ug/mL doxycycline, 24 hours, read-out: inhibitory value (IC50) for 293-NIK NF-kB-Luciferase activity. From the text:
(1) The first assay was used to profile whether a test compound can inhibit the NF-kB signally through NIK inhibition without affecting cell viability. In this assay, human embryonic kidney 293 cells was stably transfected with a tetracycline-inducible NIK DNA construct containing a cytomegalovirus promoter plus two reporter DNA constructs. One reporter encoded firefly luciferase under the control of three repeats of an NF-kB response element from the ELAM-1 gene and reflects the level of NIK activity in the cells, whereas the other reporter constitutively expressed Renilla luciferase under the control of the herpes simplex virus thymidine kinase promoter and served as a general measure of cell viability. Cells were incubated with different concentrations of compounds (0.2% DMSO final) in medium containing 1 ug/mL doxycycline and 10% tet-system approved fetal bovine serum (Clontech) for 24 hours, after which the reporters' signals were detected using the Dual Glo luciferase detection system (Promega) according to the vendor's protocol. The compounds listed in Table 1 have the corresponding inhibitory value (IC50 in micromolar) for 293-NIK NF-kB-Luciferase activity (values for compounds are presented in the same order as found in Table 1): na, 0.059, na, na, na, 0.105, 0.027, na, 20, 1.2, na, 1.8, 0.0231, 0.879, 0.0361, 0.582, na, 0.142, na, 0.403, 0.059, 0.0331, na, na, 0.0573, 1.5, na, na, 0.0722, na, na, 0.589, 12.7, 3.7, 14.9, na, 0.707, 1, 0.0311, 0.332, 0.309, 0.0142, 0.051, 2.8, 0.129, na, na, 1.5, na, na, na, 1.3, 0.062, 20, 0.31, 0.104, 0.091, 0.037, 0.085, 0.279, na, 0.305, 0.064, 0.332, 0.133, 0.168, 0.217, 0.553, na and na.

Assay [3] concerns p52 (NF-kB2) nuclear translocation in HeLa cells. The assay can be described thus: NIK p52 Translocation Assay (non-classical NF-kB signaling). As to conditions: Homo sapiens; HeLa cells, 100 ng/mL anti-lymphotoxin beta receptor antibody, 5 hours; read-out: inhibitory value (IC50) for NIK p52 Translocation Assay. It counts as cell-based. On the procedure: (2) A second set of cell assay was used to define the selectivity of NIK inhibitors toward inhibition of classical vs. non-classical NF-kB signaling and rely on quantification of the nuclear translocation of p52 (NF-kB2) and REL-A (p65) using high content cellular imaging. For the p52 (non-classical NF-kB signaling) nuclear translocation assay, HeLa cells were treated with different concentrations of compounds (0.2% DMSO final) in medium containing 10% fetal bovine serum and then stimulated with 100 ng/mL of an anti-lymphotoxin beta receptor antibody (R&D Systems) for 5 hours. In the REL-A nuclear translocation assay, HeLa cells were incubated with compounds (0.2% DMSO final) for 4.5 hours in medium containing 10% fetal bovine serum before stimulating them with 10 ng/mL tumor necrosis factor (TNF)-α (R&D Systems) for 30 minutes. Cells were fixed with 4% paraformaldehyde, permeabilized by adding 0.1% Triton X-100 in phosphate buffered saline, and then incubated with either 2 ug/mL anti-p52 antibody (Millipore) or 400 ng/mL anti-REL-A (p65) antibody (Santa Cruz Biotechnology). Finally, the cells were incubated with an Alexa488-labeled secondary antibody (Invitrogen) and DRAQ5 DNA stain (Biostatus). Imaging was carried out using an Opera reader (Perkin Elmer) and data are analyzed with the aid of Acapella software (Perkin Elmer). The p52 or REL-A translocation into the nucleus was quantified by the ratio of the nuclear to cytoplasmic signal intensity. The concentration of inhibitor required for 50% inhibition (IC50 values) in these cell assays were derived from the plots of signal vs. inhibitor concentration. The compounds in listed in Table 1 have the corresponding inhibitory value (IC50 in micromolar) for NIK p52 Translocation Assay (values for compounds are presented in the same order as found in Table 1, and “na” means the data for this assay is to be determined): 0.326, 0.33, na, na, na, 0.218, 0.07, na, na, na, 0.129, 7.6, 0.077, 3.4, na, 0.518, na, 0.059, 0.514, 0.127, na, na, 0.010, na, na, 0.313, 0.275, na, 0.0727, na, na, na, na, na, na, 0.194, na, 6.4, 0.22, 0.346, na, na, na and na, na, na, na, na, na, 0.447, na, 0.089, 0.479, 0.489, 0.243, 0.747, 1, na, 1.9, 0.552, 2.1, na. na, na, na, na and na.

T1 sequence (Q99558 whole entry): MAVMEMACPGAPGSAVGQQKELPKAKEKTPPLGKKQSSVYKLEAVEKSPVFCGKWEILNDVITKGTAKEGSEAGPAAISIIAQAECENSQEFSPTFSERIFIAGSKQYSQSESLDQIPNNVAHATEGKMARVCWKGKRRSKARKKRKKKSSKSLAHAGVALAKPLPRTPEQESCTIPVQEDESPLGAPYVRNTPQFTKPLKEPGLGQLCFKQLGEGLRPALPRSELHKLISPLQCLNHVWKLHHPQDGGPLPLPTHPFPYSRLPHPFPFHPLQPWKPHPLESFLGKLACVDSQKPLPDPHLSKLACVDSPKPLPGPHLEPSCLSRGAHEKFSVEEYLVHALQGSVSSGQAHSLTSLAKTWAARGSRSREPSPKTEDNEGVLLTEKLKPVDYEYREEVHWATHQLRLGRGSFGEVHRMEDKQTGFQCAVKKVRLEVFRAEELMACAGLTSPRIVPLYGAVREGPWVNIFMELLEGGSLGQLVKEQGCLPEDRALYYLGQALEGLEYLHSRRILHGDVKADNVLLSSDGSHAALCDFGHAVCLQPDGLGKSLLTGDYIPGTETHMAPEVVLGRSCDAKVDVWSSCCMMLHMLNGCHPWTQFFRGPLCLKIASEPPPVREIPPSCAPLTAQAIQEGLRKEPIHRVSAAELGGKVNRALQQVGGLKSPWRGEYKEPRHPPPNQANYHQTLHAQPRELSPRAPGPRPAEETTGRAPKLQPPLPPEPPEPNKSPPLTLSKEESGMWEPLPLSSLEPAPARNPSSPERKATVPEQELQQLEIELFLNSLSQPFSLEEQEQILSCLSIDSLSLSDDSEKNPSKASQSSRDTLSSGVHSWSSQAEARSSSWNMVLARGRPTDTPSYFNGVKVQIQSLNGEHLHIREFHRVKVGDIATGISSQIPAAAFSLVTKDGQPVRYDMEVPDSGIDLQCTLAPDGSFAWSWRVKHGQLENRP

One may read the Ki as the dissociation constant of the complex between target and ligand, obtained from inhibition or displacement. Usually IC50 stands for the point on the concentration scale where inhibition reaches its midpoint. As to `N#Cc1ccc2cnn(-c3nc(N)ncc3N)c2c1` [Example T1-9, 1-(2,5-diaminopyrimidin-4-yl)-1H-indazole-6-carbonitrile], the inhibitory constant (Ki) in assay [1] is 45.9 nM. For the same molecule, the IC50 in assay [2] was found to be 20000 nM.

For `CC(O)(C#Cc1ccc2ncn(-c3nccc(N)n3)c2c1)c1nccs1` (stereo not drawn) [Example T1-50, 4-(1-(4-aminopyrimidin-2-yl)-1H-benzo[d]imidazol-6-yl)-2-(thiazol-2-yl)but-3-yn-2-ol], the Ki in assay [1] stood at 152 nM. In assay [3], the concentration for half-maximal inhibition (IC50) turned out to be 447 nM.

With `Cc1nc2ccc(C#CC(C)(O)c3nccs3)cc2n1-c1ccnc(N)n1` (stereo not drawn) [Example T1-12, 4-(1-(2-aminopyrimidin-4-yl)-2-methyl-1H-benzo[d]imidazol-6-yl)-2-(thiazol-2-yl)but-3-yn-2-ol], the Ki in assay [1] was 9.3 nM. Also, the results for the half-maximal inhibitory concentration (IC50) in assay [2] and in assay [3] were 1800 nM and 7600 nM, respectively.

Turning to `CC(C)(O)C#Cc1cc2c(cc1F)ncn2-c1ccnc(N)n1` [Example T1-40, 4-(1-(2-aminopyrimidin-4-yl)-5-fluoro-1H-benzo[d]imidazol-6-yl)-2-methylbut-3-yn-2-ol], the inhibition constant (Ki) in assay [1] turned out to be 3 nM. Moreover, the half-maximal inhibitory concentration (IC50) in assay [2] was 332 nM; in assay [3] it was 346 nM.

With `CC(O)(C#Cc1ccc2ncn(-c3ccnc(N)n3)c2c1)C1CC1` (stereo not drawn) [Example T1-34, 4-(1-(2-aminopyrimidin-4-yl)-1H-benzo[d]imidazol-6-yl)-2-cyclopropylbut-3-yn-2-ol], in assay [1], the Ki was found to be 92.1 nM. Also, the half-inhibitory concentration (IC50) in assay [2] amounted to 3700 nM.

In the case of `CC(O)(C#Cc1ccc2cnn(-c3ccnc(N)n3)c2c1)c1cn[nH]c1` (stereo not drawn) [Example T1-35, 4-(1-(2-aminopyrimidin-4-yl)-1H-indazol-6-yl)-2-(1H-pyrazol-4-yl)but-3-yn-2-ol], in assay [1], the Ki came out at 18 nM. Further, the half-maximal inhibitory concentration (IC50) in assay [2] is 14900 nM.

`CC1(C(=O)Nc2cnc(N)nc2-n2ncc3ccc(C#N)cc32)COC1` [Example T1-11, N-(2-amino-4-(6-cyano-1H-indazol-1-yl)pyrimidin-5-yl)-3-methyloxetane-3-carboxamide]: the Ki in assay [1] was 559 nM. Besides, the IC50 in assay [3] came to 129 nM.

In the case of `CC(O)(C#Cc1ccc2ncn(-c3ccnc(N)n3)c2c1)CF` (stereo not drawn) [Example T1-37, 4-(1-(2-aminopyrimidin-4-yl)-1H-benzo[d]imidazol-6-yl)-1-fluoro-2-methylbut-3-yn-2-ol], the Ki in assay [1] is 2.3 nM. Besides, the IC50 in assay [2] was 707 nM.

With `Cc1nonc1C(C)(O)C#Cc1ccc2c(C)nn(-c3ccnc(N)n3)c2c1` (stereo not drawn) [Example T1-61, 4-(1-(2-aminopyrimidin-4-yl)-3-methyl-1H-indazol-6-yl)-2-(4-methyl-1,2,5-oxadiazol-3-yl)but-3-yn-2-ol], the inhibition constant Ki in assay [1] came to 383 nM. Moreover, the 50% inhibitory concentration (IC50) in assay [3] turned out to be 2100 nM.

On to `CC(O)(C#Cc1ccc2cnn(-c3ccnc(N)n3)c2c1)C(F)F` (stereo not drawn) [Example T1-19, 4-(1-(2-aminopyrimidin-4-yl)-1H-indazol-6-yl)-1,1-difluoro-2-methylbut-3-yn-2-ol], for which, in assay [1], the Ki is 190 nM. The IC50 in assay [3] was 514 nM.

For the molecule `CC(O)(C#Cc1ccc2ncn(-c3ccnc(N)n3)c2c1)C(F)F` (stereo not drawn) [Example T1-26, 4-(1-(2-aminopyrimidin-4-yl)-1H-benzo[d]imidazol-6-yl)-1,1-difluoro-2-methylbut-3-yn-2-ol], the inhibition constant Ki in assay [1] is 61 nM. For the same molecule, the figures for the concentration for half-maximal inhibition (IC50) in assay [2] and in assay [3] were 1500 nM and 313 nM, respectively.

With `CC(O)(C#Cc1ccc2ncn(-c3ccnc(N)n3)c2c1)c1cn[nH]c1` (stereo not drawn) [Example T1-33, 4-(1-(2-aminopyrimidin-4-yl)-1H-benzo[d]imidazol-6-yl)-2-(1H-pyrazol-4-yl)but-3-yn-2-ol], the Ki in assay [1] was 23 nM. The half-inhibitory concentration (IC50) in assay [2] was 12700 nM.

In the case of `CC(O)(C#Cc1ccc2ncn(-c3ccnc(N)n3)c2c1)C(F)(F)F` (stereo not drawn) [Example T1-27, 4-(1-(2-aminopyrimidin-4-yl)-1H-benzo[d]imidazol-6-yl)-1,1,1-trifluoro-2-methylbut-3-yn-2-ol], the Ki in assay [1] was found to be 570 nM. Moreover, in assay [3], the concentration for half-maximal inhibition (IC50) came to 275 nM.

As to `COc1ncccc1Nc1ncnc(-n2ncc3ccc(C#N)cc32)n1` [Example T1-23, 1-(4-(2-methoxypyridin-3-ylamino)-1,3,5-triazin-2-yl)-1H-indazole-6-carbonitrile], the Ki in assay [1] was above 5000 nM. Also, the IC50 in assay [3] was 10 nM.

As for `CCOc1nc2ccc(C#CC(C)(C)O)cc2n1-c1ccnc(N)n1` [Example T1-38, 4-(1-(2-aminopyrimidin-4-yl)-2-ethoxy-1H-benzo[d]imidazol-6-yl)-2-methylbut-3-yn-2-ol], the Ki in assay [1] came to 16 nM. Further, the IC50 in assay [2] is 1000 nM; in assay [3], 6400 nM.

As to `CC(C)(O)C#Cc1ccc2cnn(-c3cc(N)ncn3)c2c1` [Example T1-36, 4-(1-(6-aminopyrimidin-4-yl)-1H-indazol-6-yl)-2-methylbut-3-yn-2-ol], the Ki in assay [1] was 850 nM. Moreover, the half-inhibitory concentration (IC50) in assay [3] was determined as 194 nM.

As to `Cn1cc(-c2cnc(N)nc2-n2ncc3ccc(C#CC(C)(C)O)cc32)cn1` [Example T1.1-87, 4-[1-[2-amino-5-(1-methyl-pyrazol-4-yl)pyrimidin-4-yl]indazol-6-yl]-2-methyl-but-3-yn-2-ol], the Ki in assay [1] was 39 nM.

For `Cc1nc([C@](C)(O)C#Cc2ccc3c(CF)nn(-c4ccnc(N)n4)c3c2)no1` [Example T1.1-8, (2R)-4-[1-(2-aminopyrimidin-4-yl)-3-(fluoromethyl)indazol-6-yl]-2-(5-methyl-1,2,4-oxadiazol-3-yl)but-3-yn-2-ol], the Ki in assay [1] came to 0.5 nM.

As for `CC(O)(C#Cc1ccc2c(C(=O)N3CCCC(O)C3)nn(-c3ccnc(N)n3)c2c1)c1ncccn1` (stereo not drawn) [Example T1.1-145, [1-(2-aminopyrimidin-4-yl)-6-(3-hydroxy-3-pyrimidin-2-yl-but-1-ynyl)indazol-3-yl]-(3-hydroxy-1-piperidyl)methanone], the inhibitory constant (Ki) in assay [1] is 11 nM.
